# Reference: patent US11000033B2, “Ketone or oxime compound, and herbicide” (NISSAN CHEMICAL CORPORATION, priority 2014, dated 2021)
# Key:
# Assay type in all cases: in vivo
# rice = test: Test Example 4: effect on crop by soil treatment (symbol b); details: application herbicide amount 320 g/ha
# Summary of the method: (§1)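 Diluvial soil (sterilized) in boxes; seeds placed spot-wise alongside weed species; ~1.5 cm covering soil. Greenhouse, 25–30° C.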
# Lolium multiflorum Lam. [1] = test: Test Example 5: herbicidal effect by foliage application, plastic box (symbol K); details: 320 g/ha, 3 weeks after application
# Summary of the method: (§2)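 Emulsion formulation, diluted with water to the intended rate, was applied uniformly to leaves by small sprayer. Recipients were 14-day greenhouse-grown seedlings (25° C. to 30° C.). Assessment followed at 3 weeks.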
# rapeseed = test: Test Example 4: effect on crop by soil treatment (symbol g); details: application herbicide amount 320 g/ha
# Summary of the method: as §1
# Alopecurus myosuroides [2] = test: Test Example 4: herbicidal effect by soil treatment (symbol J); details: application herbicide amount 320 g/ha
# Summary of the method: (§3)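 Seeds were sown in sterilized diluvial soil, covered with about 1.5 cm of soil, and the soil surface was sprayed with a water-diluted emulsion of the compound at a predetermined rate. Plants grew in a greenhouse at 25° C. to 30° C.; effects were scored visually 3 weeks after application.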
# wheat [3] = test: Test Example 4: effect on crop by soil treatment (symbol e); details: application herbicide amount 320 g/ha
# Summary of the method: as §1
# corn = test: Test Example 4: effect on crop by soil treatment (symbol c); details: application herbicide amount 320 g/ha
# Summary of the method: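 Crop seed is sown in spots together with several weed species in a box of sterilized diluvial soil. It is covered by about 1.5 cm of soil and kept in a greenhouse held between 25° C. and 30° C.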
# [4] = system: directly sowed rice plant; test: Test Example 3: effect on crop by foliage application, Wagner pot (symbol b); details: application herbicide amount 320 g/ha
# Summary of the method: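 Steps: fill a 1/10000-are Wagner pot with alluvial soil; add water and mix to submerge at 0.1–0.5 cm depth; sow rice plus Echinochloa crus-galli var. crus-galli, Leptochloa chinensis and Cyperus difformis; grow in a 25–30 °C greenhouse.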
# Alopecurus myosuroides [5] = test: Test Example 5: herbicidal effect by foliage application, plastic box (symbol J); details: 320 g/ha, 3 weeks after application
# Summary of the method: as §2
# wheat [6] = test: Test Example 5: effect on crop by foliage application, plastic box (symbol e); details: 320 g/ha, 3 weeks after application
# Summary of the method: (§4)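 Sterilized diluvial soil, plastic box (21 × 13 × 7 cm); spot sowing, ~1.5 cm soil cover; greenhouse 25–30° C.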
# Stellaria media = test: Test Example 4: herbicidal effect by soil treatment (symbol P); details: application herbicide amount 320 g/ha
# Summary of the method: as §3
# Digitaria ciliaris = test: Test Example 4: herbicidal effect by soil treatment (symbol F); details: application herbicide amount 320 g/ha
# Summary of the method: as §3
# beet = test: Test Example 4: effect on crop by soil treatment (symbol f); details: application herbicide amount 320 g/ha
# Summary of the method: as §1
# rice plant = test: Test Example 5: effect on crop by foliage application, plastic box (symbol b); details: 320 g/ha, 3 weeks after application
# Summary of the method: as §4
# Lolium multiflorum Lam. [7] = test: Test Example 4: herbicidal effect by soil treatment (symbol K); details: application herbicide amount 320 g/ha
# Summary of the method: as §3
# [8] = system: Echinochloa oryzacola Vasing.; test: Test Example 2: herbicidal activity, application during weed generation in submerged conditions (symbol A); details: Table 23; application herbicide amount 320 g/ha; grade 0-5 by criteria of Test Example 1
# Summary of the method: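 Paddy pot test, submerged (4 cm water), alluvial soil, mixed sowing; greenhouse 25–30° C. Emulsion formulation diluted to predetermined rate, applied onto floodwater at 1–2 leaf stage. Visual herbicidal rating at 3 wk post-treatment.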
smiles,measurement,setting,value
CON=C(C)CC1CC(OC(=O)SC(C)(C)C)=C(c2c(C)cc(-c3ccc(Cl)cc3)cc2C)C1=O (stereo not drawn) [6-082],"b: directly sowed rice plant, effect on crop grade",rice,1 (Herbicidal ratio of 5% or higher and lower than 20%)
same,"K: Lolium multiflorum Lam., herbicidal effect (criteria of Test Example 1)",Lolium multiflorum Lam. [1],5 (Herbicidal ratio of 90% or more (almost completely withered))
same,"g: rapeseed, effect on crop grade",rapeseed,0 (Herbicidal ratio of 5% or lower (almost no effect))
same,"J: Alopecurus myosuroides, herbicidal effect grade",Alopecurus myosuroides [2],5 (Herbicidal ratio of 90% or more (almost completely withered))
same,"e: wheat, effect on crop grade",wheat [3],0 (Herbicidal ratio of 5% or lower (almost no effect))
same,"c: corn, effect on crop grade",corn,0 (Herbicidal ratio of 5% or lower (almost no effect))
same,"effect on crop b (directly sowed rice plant), grade 0-5",[4],5 (Herbicidal ratio of 90% or more (almost completely withered))
same,"J: Alopecurus myosuroides, herbicidal effect (criteria of Test Example 1)",Alopecurus myosuroides [5],5 (Herbicidal ratio of 90% or more (almost completely withered))
same,"e: wheat, effect on crop (criteria of Test Example 1)",wheat [6],5 (Herbicidal ratio of 90% or more (almost completely withered))
same,"P: Stellaria media, herbicidal effect grade",Stellaria media,0 (Herbicidal ratio of 5% or lower (almost no effect))
same,"F: Digitaria ciliaris, herbicidal effect grade",Digitaria ciliaris,5 (Herbicidal ratio of 90% or more (almost completely withered))
same,"f: beet, effect on crop grade",beet,0 (Herbicidal ratio of 5% or lower (almost no effect))
same,"b: directly sowed rice plant, effect on crop (criteria of Test Example 1)",rice plant,5 (Herbicidal ratio of 90% or more (almost completely withered))
same,"K: Lolium multiflorum Lam., herbicidal effect grade",Lolium multiflorum Lam. [7],5 (Herbicidal ratio of 90% or more (almost completely withered))
same,"Herbicidal effect grade, A: Echinochloa oryzacola Vasing.",[8],4 (Herbicidal ratio of 70% or higher and lower than 90%)
CON=C(C)CC1CC(O)=C(c2c(C)cc(-c3ccc(OC(F)(F)F)cc3)cc2C)C1=O (mixture of isomers) [6-056],"b: directly sowed rice plant, effect on crop grade",rice,1 (Herbicidal ratio of 5% or higher and lower than 20%)
same,"K: Lolium multiflorum Lam., herbicidal effect (criteria of Test Example 1)",Lolium multiflorum Lam. [1],4 (Herbicidal ratio of 70% or higher and lower than 90%)
same,"g: rapeseed, effect on crop grade",rapeseed,0 (Herbicidal ratio of 5% or lower (almost no effect))
same,"J: Alopecurus myosuroides, herbicidal effect grade",Alopecurus myosuroides [2],0 (Herbicidal ratio of 5% or lower (almost no effect))
same,"e: wheat, effect on crop grade",wheat [3],0 (Herbicidal ratio of 5% or lower (almost no effect))
same,"c: corn, effect on crop grade",corn,0 (Herbicidal ratio of 5% or lower (almost no effect))
same,"effect on crop b (directly sowed rice plant), grade 0-5",[4],5 (Herbicidal ratio of 90% or more (almost completely withered))
same,"J: Alopecurus myosuroides, herbicidal effect (criteria of Test Example 1)",Alopecurus myosuroides [5],3 (Herbicidal ratio of 40% or higher and lower than 70%)
same,"e: wheat, effect on crop (criteria of Test Example 1)",wheat [6],0 (Herbicidal ratio of 5% or lower (almost no effect))
same,"P: Stellaria media, herbicidal effect grade",Stellaria media,0 (Herbicidal ratio of 5% or lower (almost no effect))
same,"F: Digitaria ciliaris, herbicidal effect grade",Digitaria ciliaris,0 (Herbicidal ratio of 5% or lower (almost no effect))
same,"f: beet, effect on crop grade",beet,0 (Herbicidal ratio of 5% or lower (almost no effect))
same,"b: directly sowed rice plant, effect on crop (criteria of Test Example 1)",rice plant,2 (Herbicidal ratio of 20% or higher and lower than 40%)
same,"K: Lolium multiflorum Lam., herbicidal effect grade",Lolium multiflorum Lam. [7],0 (Herbicidal ratio of 5% or lower (almost no effect))
same,"Herbicidal effect grade, A: Echinochloa oryzacola Vasing.",[8],1 (Herbicidal ratio of 5% or higher and lower than 20%)
CON=C(C)CC1CC(OC(=O)COc2ccccc2)=C(c2c(C)cc(-c3ccc(Cl)cc3)cc2OC)C1=O (stereo not drawn) [6-079],"b: directly sowed rice plant, effect on crop grade",rice,3 (Herbicidal ratio of 40% or higher and lower than 70%)
same,"K: Lolium multiflorum Lam., herbicidal effect (criteria of Test Example 1)",Lolium multiflorum Lam. [1],5 (Herbicidal ratio of 90% or more (almost completely withered))
same,"g: rapeseed, effect on crop grade",rapeseed,0 (Herbicidal ratio of 5% or lower (almost no effect))
same,"J: Alopecurus myosuroides, herbicidal effect grade",Alopecurus myosuroides [2],3 (Herbicidal ratio of 40% or higher and lower than 70%)
same,"e: wheat, effect on crop grade",wheat [3],3 (Herbicidal ratio of 40% or higher and lower than 70%)
same,"c: corn, effect on crop grade",corn,0 (Herbicidal ratio of 5% or lower (almost no effect))
same,"effect on crop b (directly sowed rice plant), grade 0-5",[4],5 (Herbicidal ratio of 90% or more (almost completely withered))
same,"J: Alopecurus myosuroides, herbicidal effect (criteria of Test Example 1)",Alopecurus myosuroides [5],5 (Herbicidal ratio of 90% or more (almost completely withered))
same,"e: wheat, effect on crop (criteria of Test Example 1)",wheat [6],5 (Herbicidal ratio of 90% or more (almost completely withered))
same,"P: Stellaria media, herbicidal effect grade",Stellaria media,0 (Herbicidal ratio of 5% or lower (almost no effect))
same,"F: Digitaria ciliaris, herbicidal effect grade",Digitaria ciliaris,5 (Herbicidal ratio of 90% or more (almost completely withered))
same,"f: beet, effect on crop grade",beet,0 (Herbicidal ratio of 5% or lower (almost no effect))
same,"b: directly sowed rice plant, effect on crop (criteria of Test Example 1)",rice plant,5 (Herbicidal ratio of 90% or more (almost completely withered))
same,"K: Lolium multiflorum Lam., herbicidal effect grade",Lolium multiflorum Lam. [7],5 (Herbicidal ratio of 90% or more (almost completely withered))
same,"Herbicidal effect grade, A: Echinochloa oryzacola Vasing.",[8],3 (Herbicidal ratio of 40% or higher and lower than 70%)
CON=C(C)CC1CC(OC(=O)N(C)C)=C(c2c(C)cc(C)cc2OC)C1=O (stereo not drawn) [6-109],"Effect on crop grade, b: directly sowed rice plant",rice,1 (Herbicidal ratio of 5% or higher and lower than 20%)
same,"K: Lolium multiflorum Lam., herbicidal effect (criteria of Test Example 1)",Lolium multiflorum Lam. [1],5 (Herbicidal ratio of 90% or more (almost completely withered))
same,"Effect on crop grade, g: rapeseed",rapeseed,0 (Herbicidal ratio of 5% or lower (almost no effect))
same,"Herbicidal effect grade, J: Alopecurus myosuroides",Alopecurus myosuroides [2],5 (Herbicidal ratio of 90% or more (almost completely withered))
same,"Effect on crop grade, e: wheat",wheat [3],0 (Herbicidal ratio of 5% or lower (almost no effect))
same,"Effect on crop grade, c: corn",corn,0 (Herbicidal ratio of 5% or lower (almost no effect))
same,"effect on crop b (directly sowed rice plant), grade 0-5",[4],5 (Herbicidal ratio of 90% or more (almost completely withered))
same,"J: Alopecurus myosuroides, herbicidal effect (criteria of Test Example 1)",Alopecurus myosuroides [5],5 (Herbicidal ratio of 90% or more (almost completely withered))
same,"e: wheat, effect on crop (criteria of Test Example 1)",wheat [6],4 (Herbicidal ratio of 70% or higher and lower than 90%)
same,"Herbicidal effect grade, P: Stellaria media",Stellaria media,0 (Herbicidal ratio of 5% or lower (almost no effect))
same,"Herbicidal effect grade, F: Digitaria ciliaris",Digitaria ciliaris,5 (Herbicidal ratio of 90% or more (almost completely withered))
same,"Effect on crop grade, f: beet",beet,0 (Herbicidal ratio of 5% or lower (almost no effect))
same,"b: directly sowed rice plant, effect on crop (criteria of Test Example 1)",rice plant,5 (Herbicidal ratio of 90% or more (almost completely withered))
same,"Herbicidal effect grade, K: Lolium multiflorum Lam.",Lolium multiflorum Lam. [7],5 (Herbicidal ratio of 90% or more (almost completely withered))
same,"Herbicidal effect grade, A: Echinochloa oryzacola Vasing.",[8],5 (Herbicidal ratio of 90% or more (almost completely withered))
COc1ccc(-c2cc(C)c(C3=C(O)CC(CC(C)=O)C3=O)c(C)c2)cc1 (stereo not drawn) [7-006],"Effect on crop grade, b: directly sowed rice plant",rice,3 (Herbicidal ratio of 40% or higher and lower than 70%)
same,"K: Lolium multiflorum Lam., herbicidal effect (criteria of Test Example 1)",Lolium multiflorum Lam. [1],5 (Herbicidal ratio of 90% or more (almost completely withered))
same,"Effect on crop grade, g: rapeseed",rapeseed,0 (Herbicidal ratio of 5% or lower (almost no effect))
same,"Herbicidal effect grade, J: Alopecurus myosuroides",Alopecurus myosuroides [2],0 (Herbicidal ratio of 5% or lower (almost no effect))
same,"Effect on crop grade, e: wheat",wheat [3],0 (Herbicidal ratio of 5% or lower (almost no effect))
same,"Effect on crop grade, c: corn",corn,0 (Herbicidal ratio of 5% or lower (almost no effect))
same,"effect on crop b (directly sowed rice plant), grade 0-5",[4],5 (Herbicidal ratio of 90% or more (almost completely withered))
same,"J: Alopecurus myosuroides, herbicidal effect (criteria of Test Example 1)",Alopecurus myosuroides [5],3 (Herbicidal ratio of 40% or higher and lower than 70%)
same,"e: wheat, effect on crop (criteria of Test Example 1)",wheat [6],0 (Herbicidal ratio of 5% or lower (almost no effect))
same,"Herbicidal effect grade, P: Stellaria media",Stellaria media,0 (Herbicidal ratio of 5% or lower (almost no effect))
same,"Herbicidal effect grade, F: Digitaria ciliaris",Digitaria ciliaris,0 (Herbicidal ratio of 5% or lower (almost no effect))
same,"Effect on crop grade, f: beet",beet,0 (Herbicidal ratio of 5% or lower (almost no effect))
same,"b: directly sowed rice plant, effect on crop (criteria of Test Example 1)",rice plant,5 (Herbicidal ratio of 90% or more (almost completely withered))
same,"Herbicidal effect grade, K: Lolium multiflorum Lam.",Lolium multiflorum Lam. [7],2 (Herbicidal ratio of 20% or higher and lower than 40%)
same,"Herbicidal effect grade, A: Echinochloa oryzacola Vasing.",[8],2 (Herbicidal ratio of 20% or higher and lower than 40%)
